Assay results: paper PMC8426237, “A first-in-human phase I study of TAS0728, an oral covalent binding inhibitor of HER2, in patients with advanced solid tumors with HER2 or HER3 aberrations” (Investigational New Drugs, 2021)

What was measured:
[1] = test system: HER2 overexpressed cancer cells; design: method as in PMID 30787176; details: cited from earlier work
HER2 = test system: HER2; design: method as in PMID 30787176; details: cited from earlier work
[2] = Dose-limiting toxicities, 3 + 3 dose escalation, first cycle; format: in vivo, human; details: for Any DLTs / DLT: Grade ≥ 3 diarrhea only if lasting >48 h and unresponsive to intensive antidiarrheal medication: DLT-evaluable population; for Patients with DLT AEs: all treated population
Description: Based on preclinical toxicological studies and PK analysis, the starting dose of TAS0728 was 50 mg BID. Dose escalation followed a 3 + 3 dose-escalation scheme and planned to proceed using the following dose levels BID: 50 mg, 100 mg, 200 mg, 400 mg, 600 mg and 800 mg. TAS0728 was administered during a 21-day cycle.
If a DLT was identified at a particular dose level, de-escalation was made to an intermediate de-escalation dose level. […] The MTD was to be the dose level at which 0 of 6 or 1 of 6 patients experienced a DLT, with at least 2 patients experiencing DLTs at the next higher dose level. For the determination of the MTD, DLTs that occurred during the first cycle (i.e., first 21 days) of TAS0728 treatment were considered. Patients who experienced AEs were allowed two dose reductions during the study. TAS0728 treatment could be continued until disease progression, unacceptable toxicity, withdrawal of consent, or at the discretion of the investigator.

## C=CC(=O)N1CCC[C@@H](n2nc(C(=O)Nc3ccc(CC(=O)N(C)C)c(C)c3C)c3c(N)ncnc32)C1 [TAS0728]
[1]
  Inhibitory activity for overexpressed/amplified HER2 and mutated HER2 in cancer cells: potent inhibitory activity
[1]; in vitro and in vivo
  Antiproliferative activity against HER2 overexpressed cancer cells: antiproliferative activity
HER2
  Specificity for HER2 over wild-type EGFR: high specificity for HER2 over wild-type EGFR
HER2; nonclinical studies
  Inhibitory effect against HER2 and HER3 versus EGFR: much greater against HER2 and HER3 than against EGFR
[2]; 50 mg BID (N = 3)
  Any DLTs: 0 n, (%)
  DLT: Grade ≥ 3 diarrhea only if lasting >48 h and unresponsive to intensive antidiarrheal medication: 0 n, (%)
  Patients with DLT AEs: 0 n, (%)
[2]; 100 mg BID (N = 3)
  Any DLTs: 0 n, (%)
  DLT: Grade ≥ 3 diarrhea only if lasting >48 h and unresponsive to intensive antidiarrheal medication: 0 n, (%)
  Patients with DLT AEs: 0 n, (%)
[2]; 150 mg BID (N = 3)
  Any DLTs: 1 (33.3) n, (%)
  DLT: Grade ≥ 3 diarrhea only if lasting >48 h and unresponsive to intensive antidiarrheal medication: 1 (33.3) n, (%)
[2]; 150 mg BID (N = 6)
  Patients with DLT AEs: 1 (16.7) n, (%)
[2]; 200 mg BID
  DLTs observed (Grade 3 diarrhea lasting >48 h, not responsive to antidiarrheal treatment): two
[2]; 200 mg BID (N = 6)
  Any DLTs: 2 (33.3) n, (%)
  DLT: Grade ≥ 3 diarrhea only if lasting >48 h and unresponsive to intensive antidiarrheal medication: 2 (33.3) n, (%)
[2]; 200 mg BID (N = 7)
  Patients with DLT AEs: 2 (28.6) n, (%)
[2]; Overall (N = 19)
  Patients with DLT AEs: 3 (15.8) n, (%)
[2]; Total (N = 15)
  Any DLTs: 3 (20.0) n, (%)
  DLT: Grade ≥ 3 diarrhea only if lasting >48 h and unresponsive to intensive antidiarrheal medication: 3 (20.0) n, (%)
